# Source: patent publication US9315490B2, “2,5-substituted pyrimidines” (Grünenthal GmbH, priority 2014, dated 2016)
# Target: T1, human PDE4B1 (Homo sapiens, UniProt Q07343)
# T1 construct: host or cells: Sf9 cells
# Assay: TR-FRET assay using the LANCE Ultra cAMP kit to determine the activity of hPDE4B1
# Type: biochemical
# Details: test concentration 1 μM, 1 µM
# Text: TR-FRET Assay Using the LANCE® Ultra cAMP Kit to Determine the Activity of hPDE4B1
# The effects of the compounds on the activity of the human PDE4B1 was quantified by measuring the production of 5′AMP from cAMP using a human recombinant enzyme expressed in Sf9 cells and the LANCE® Ultra cAMP kit, a TR-FRET detection method from PerkinElmer. The human PDE4B1 enzyme was purchased from SignalChem Lifesciences (Catalog# P92-31BG, Lot# H296-2).
# The test compound, reference compound or water (control) was mixed with the enzyme (0.96 U) in a reaction buffer containing 50 mM Tris-HCl, 50 mM MgCl2 and 5 mM DTT (pH 8.5). Thereafter, the reaction was initiated by addition of 500 nM cAMP (substrate) and the mixture was incubated for 30 minutes at room temperature. For control basal measurements, the enzyme was omitted from the reaction mixture. After 30 minutes, the reaction was stopped and diluted by a factor of 100 with the reaction buffer supplemented with 500 μM IBMX. The fluorescence donor (europium chelate-labeled cAMP) and the fluorescence acceptor (anti-cAMP antibody labeled with the ULight™ dye) were then added together with 500 μM IBMX to a 10 μl aliquot. After 60 minutes, the fluorescence transfer corresponding to the amount of residual cAMP was measured at λex=337 nm, λem=620 nm and λem=665 nm using a microplate reader (PHERAstar, BMG). The enzyme activity was determined by dividing the signal measured at 665 nm by that measured at 620 nm (ratio) multiplied by 10000. The results were expressed as percent inhibition of the control enzyme activity. IC50 values (IC50=concentration causing a half-maximal inhibition of control specific activity) were derived from dose response measurements with ten different concentrations (n=3; N=1-3).
# T1 sequence (Q07343 whole entry): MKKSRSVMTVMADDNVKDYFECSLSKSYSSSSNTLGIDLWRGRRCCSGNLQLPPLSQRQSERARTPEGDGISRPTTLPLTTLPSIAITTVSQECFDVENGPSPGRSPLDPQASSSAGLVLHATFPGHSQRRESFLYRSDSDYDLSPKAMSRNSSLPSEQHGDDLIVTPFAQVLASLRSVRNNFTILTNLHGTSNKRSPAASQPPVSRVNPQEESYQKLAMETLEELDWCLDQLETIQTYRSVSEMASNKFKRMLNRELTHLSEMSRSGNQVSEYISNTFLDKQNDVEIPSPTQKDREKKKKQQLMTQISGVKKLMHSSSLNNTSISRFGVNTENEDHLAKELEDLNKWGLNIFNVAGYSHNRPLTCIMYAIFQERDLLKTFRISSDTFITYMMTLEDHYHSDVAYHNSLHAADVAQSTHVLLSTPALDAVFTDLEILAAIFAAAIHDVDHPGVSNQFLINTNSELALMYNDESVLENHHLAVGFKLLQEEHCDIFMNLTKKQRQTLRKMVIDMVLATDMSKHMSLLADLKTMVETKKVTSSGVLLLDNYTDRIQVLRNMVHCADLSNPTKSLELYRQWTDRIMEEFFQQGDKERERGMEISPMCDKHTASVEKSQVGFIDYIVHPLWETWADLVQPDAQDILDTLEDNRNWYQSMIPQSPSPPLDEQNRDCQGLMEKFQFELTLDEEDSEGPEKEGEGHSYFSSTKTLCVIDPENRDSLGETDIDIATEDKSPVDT
row,SMILES,Inhibition in % (inhibition of PDE4B) [%]
1,"CC(O)c1ccnc(-c2cnc(-n3cc([S+](C)[O-])c4ccc(C(=O)N5CCOCC5)cc43)nc2)c1 (stereo not drawn) [Example 300, (1-(5-(4-(1-Hydroxyethyl)pyridin-2-yl)pyrimidin-2-yl)-3-(methylsulfinyl)-1H-indol-6-yl)(morpholino)methanone]",93

# Same assay, conditions: test concentration 1 μM, read-out: Inhibition in % (inhibition of PDE4B)
row,SMILES,inhibition at 1 µM [%]
1,"CC(O)c1ccnc(-c2cnc(-n3cc([S+](C)[O-])c4ccc(C(=O)N5CCOCC5)cc43)nc2)c1 (stereo not drawn) [Example 291, (1-(5-(4-(1-Hydroxyethyl)pyridin-2-yl)pyrimidin-2-yl)-3-(methylsulfinyl)-1H-indol-6-yl)(morpholino)methanone]",90
2,"C[S+]([O-])c1cn(-c2ncc(-c3cc(C(C)(C)O)ccc3F)cn2)c2cc(C(=O)N3CCOCC3)ccc12 (stereo not drawn) [Example 293, (1-(5-(2-Fluoro-5-(2-hydroxypropan-2-yl)phenyl)pyrimidin-2-yl)-3-(methylsulfinyl)-1H-indol-6-yl)(morpholino)methanone]",94
3,"C[S+]([O-])c1cn(-c2ncc(-c3cc(NCC4CC4)ccn3)cn2)c2cc(C(=O)N3CCOCC3)ccc12 (stereo not drawn) [Example 296, (1-(5-(4-((Cyclopropylmethyl)amino)pyridin-2-yl)pyrimidin-2-yl)-3-(methylsulfinyl)-1H-indol-6-yl)(morpholino)methanone]",97
4,"C[S+]([O-])c1cn(-c2ncc(-c3cc(N4CCCC4)ccn3)cn2)c2cc(C(=O)N3CCOCC3)ccc12 (stereo not drawn) [Example 297, (3-(Methylsulfinyl)-1-(5-(4-(pyrrolidin-1-yl)pyridin-2-yl)pyrimidin-2-yl)-1H-indol-6-yl)(morpholino)methanone]",93
5,"CCNc1ccnc(-c2cnc(-n3cc([S+](C)[O-])c4ccc(C(=O)N5CCOCC5)cc43)nc2)c1 (stereo not drawn) [Example 298, (1-(5-(4-(Ethylamino)pyridin-2-yl)pyrimidin-2-yl)-3-(methylsulfinyl)-1H-indol-6-yl)(morpholino)methanone]",119
6,"C[S+]([O-])c1cn(-c2ncc(-c3cc(Cl)ccn3)cn2)c2cc(C(=O)N3CCOCC3)ccc12 (stereo not drawn) [Example 299, (1-(5-(4-Chloropyridin-2-yl)pyrimidin-2-yl)-3-(methylsulfinyl)-1H-indol-6-yl)(morpholino)methanone]",94
7,"C[S+]([O-])c1cn(-c2ncc(-c3ccccc3F)cn2)c2cc(C(=O)N3CC=CCC3)ccc12 (stereo not drawn) [Example 306, (5,6-Dihydropyridin-1(2H)-yl)(1-(5-(2-fluorophenyl)pyrimidin-2-yl)-3-(methylsulfinyl)-1H-indol-6-yl)methanone]",80
8,"CN(CCCO)C(=O)c1ccc2c([S+](C)[O-])cn(-c3ncc(-c4ccccc4F)cn3)c2c1 (stereo not drawn) [Example 307, 1-(5-(2-Fluorophenyl)pyrimidin-2-yl)-N-(3-hydroxypropyl)-N-methyl-3-(methylsulfinyl)-1H-indole-6-carboxamide]",82
9,"CN(C)C(=O)c1ccc2c([S+](C)[O-])cn(-c3ncc(-c4ccccn4)cn3)c2c1 (stereo not drawn) [Example 313, N,N-Dimethyl-3-(methylsulfinyl)-1-(5-(pyridin-2-yl)pyrimidin-2-yl)-1H-indole-6-carboxamide]",92

# Same assay, conditions: test concentration 10 μM (marked in cell), read-out: Inhibition in % (inhibition of PDE4B)
row,SMILES,inhibition at 10 µM [%]
1,"CCNc1ccc(F)c(-c2cnc(-n3cc([S+](C)[O-])c4ccc(C(=O)N5CCOCC5)cc43)nc2)c1 (stereo not drawn) [Example 292, (1-(5-(5-(Ethylamino)-2-fluorophenyl)pyrimidin-2-yl)-3-(methylsulfinyl)-1H-indol-6-yl)(morpholino)methanone]",91
2,"C[S+]([O-])c1cn(-c2ncc(-c3cc(C4(O)CC4)ccc3F)cn2)c2cc(C(=O)N3CCOCC3)ccc12 (stereo not drawn) [Example 294, (1-(5-(2-Fluoro-5-(1-hydroxycyclopropyl)phenyl)pyrimidin-2-yl)-3-(methylsulfinyl)-1H-indol-6-yl)(morpholino)methanone]",98
3,"C[S+]([O-])c1cn(-c2ncc(-c3cc(C4(O)CC4)ccn3)cn2)c2cc(C(=O)N3CCOCC3)ccc12 (stereo not drawn) [Example 295, (1-(5-(4-(1-Hydroxycyclopropyl)pyridin-2-yl)pyrimidin-2-yl)-3-(methylsulfinyl)-1H-indol-6-yl)(morpholino)methanone]",98
4,"C[S+]([O-])c1cn(-c2ncc(-c3cc(N4CCCC4)ccn3)cn2)c2cc(C(=O)N3CCOCC3)ccc12 (stereo not drawn) [Example 301, (3-(Methylsulfinyl)-1-(5-(4-(pyrrolidin-1-yl)pyridin-2-yl)pyrimidin-2-yl)-1H-indol-6-yl)(morpholino)methanone]",99
5,"C[S+]([O-])c1cn(-c2ncc(-c3ccccc3F)cn2)c2cc(C(=O)N3CC[C@@H](CO)C3)ccc12 (stereo partly drawn) [Example 302, (1-(5-(2-Fluorophenyl)pyrimidin-2-yl)-3-(methylsulfinyl)-1H-indol-6-yl)((R)-3-(hydroxymethyl)pyrrolidin-1-yl)methanone]",103
6,"C[S+]([O-])c1cn(-c2ncc(-c3ccccc3F)cn2)c2cc(C(=O)N3CC[C@H](CO)C3)ccc12 (stereo partly drawn) [Example 303, (1-(5-(2-Fluorophenyl)pyrimidin-2-yl)-3-(methylsulfinyl)-1H-indol-6-yl)((S)-3-(hydroxymethyl)pyrrolidin-1-yl)methanone]",99
7,"CNC(=O)CN(C)C(=O)c1ccc2c([S+](C)[O-])cn(-c3ncc(-c4cc(C)ccc4F)cn3)c2c1 (stereo not drawn) [Example 304, 1-(5-(2-Fluoro-5-methylphenyl)pyrimidin-2-yl)-N-methyl-N-(2-(methylamino)-2-oxoethyl)-3-(methylsulfinyl)-1H-indole-6-carboxamide]",115
8,"CNC(=O)CN(C)C(=O)c1ccc2c(S(C)(=O)=O)cn(-c3ncc(-c4cc(C)ccc4F)cn3)c2c1 [Example 305, 1-(5-(2-Fluoro-5-methylphenyl)pyrimidin-2-yl)-N-methyl-N-(2-(methylamino)-2-oxoethyl)-3-(methylsulfonyl)-1H-indole-6-carboxamide]",85
9,"C[S+]([O-])c1cn(-c2ncc(-c3ccccc3F)cn2)c2cc(C(=O)N3C[C@@H]4C[C@H]3CO4)ccc12 (stereo partly drawn) [Example 308, (1S,4S)-2-Oxa-5-azabicyclo[2.2.1]heptan-5-yl(1-(5-(2-fluorophenyl)pyrimidin-2-yl)-3-(methylsulfinyl)-1H-indol-6-yl)methanone]",101
10,"CS(=O)(=O)c1cn(-c2ncc(-c3ccccc3F)cn2)c2cc(C(=O)N3C[C@@H]4C[C@H]3CO4)ccc12 [Example 309, (1S,4S)-2-Oxa-5-azabicyclo[2.2.1]heptan-5-yl(1-(5-(2-fluorophenyl)pyrimidin-2-yl)-3-(methylsulfonyl)-1H-indol-6-yl)methanone]",97
11,"COc1ccc(F)c(-c2cnc(-n3cc(S(C)(=O)=O)c4ccc(C(=O)N(C)CC(N)=O)cc43)nc2)c1 [Example 310, N-(2-Amino-2-oxoethyl)-1-(5-(2-fluoro-5-methoxyphenyl)pyrimidin-2-yl)-N-methyl-3-(methylsulfonyl)-1H-indole-6-carboxamide]",91
12,"CCc1ccc(F)c(-c2cnc(-n3cc(S(C)(=O)=O)c4ccc(C(=O)N(C)CC(N)=O)cc43)nc2)c1 [Example 311, N-(2-Amino-2-oxoethyl)-1-(5-(5-ethyl-2-fluorophenyl)pyrimidin-2-yl)-N-methyl-3-(methylsulfonyl)-1H-indole-6-carboxamide]",98
13,"CS(=O)(=O)c1cn(-c2ncc(-c3cc(Cl)ccn3)cn2)c2cc(C(=O)N3CCOCC3)ccc12 [Example 312, (1-(5-(4-Chloropyridin-2-yl)pyrimidin-2-yl)-3-(methylsulfonyl)-1H-indol-6-yl)(morpholino)methanone]",93
14,"Cc1cccc(-c2cnc(-n3cc([S+](C)[O-])c4ccc(C(=O)N(C)C)cc43)nc2)n1 (stereo not drawn) [Example 314, N,N-Dimethyl-1-(5-(6-methylpyridin-2-yl)pyrimidin-2-yl)-3-(methylsulfinyl)-1H-indole-6-carboxamide]",98
15,"Cc1ccc(F)c(-c2cnc(-n3cc([S+](C)[O-])c4ccc(C(=O)N(C)CCO)cc43)nc2)c1 (stereo not drawn) [Example 315, 1-(5-(2-Fluoro-5-methylphenyl)pyrimidin-2-yl)-N-(2-hydroxyethyl)-N-methyl-3-(methylsulfinyl)-1H-indole-6-carboxamide]",97
16,"CCOc1ccc(F)c(-c2cnc(-n3cc([S+](C)[O-])c4ccc(C(=O)N(C)CCO)cc43)nc2)c1 (stereo not drawn) [Example 316, 1-(5-(5-Ethoxy-2-fluorophenyl)pyrimidin-2-yl)-N-(2-hydroxyethyl)-N-methyl-3-(methylsulfinyl)-1H-indole-6-carboxamide]",98
17,"Cc1ccnc(-c2cnc(-n3cc([S+](C)[O-])c4ccc(C(=O)N(C)CCO)cc43)nc2)c1 (stereo not drawn) [Example 317, N-(2-Hydroxyethyl)-N-methyl-1-(5-(4-methylpyridin-2-yl)pyrimidin-2-yl)-3-(methylsulfinyl)-1H-indole-6-carboxamide]",87
